US20250268863A1, “DOSING REGIMENS FOR TREATMENT OF PATIENTS WITH LOCALLY ADVANCED SQUAMOUS CELL CARCINOMA” (priority 2019, published 2025)
Entries after “also recorded” stand apart in the source; their conditions may differ.

Tests used:
[1] = system: locally advanced squamous cell cancer of the head and neck (LA-SCCHN); test: Double-blind randomised placebo-controlled Phase II study of Debio 1143 + CRT: efficacy; format: in vivo, human; settings: for Locoregional control rate at 18 months after CRT: 200 mg/day days 1-14 q3w + cisplatin CRT, N = 48 (ITT); for complete response / partial response: of 48 patients
Procedure: 96 patients were randomized 95 were treated.
The primary endpoint to the study was locoregional control rate (LRC) at 18 months after CRT. Key secondary endpoints included PFS, duration of LRC, overall survival, […] and CR at 3 and 6 months after CRT completion.
The main inclusion criteria were as follows: • Previously untreated, inoperable (unresectable) Stage III, Stage IVA, or Stage IVB as per AJCC TNM staging version 7.0 (2010) • LA-SCCHN of the oral cavity, hypopharynx, larynx, or oropharynx (HPV/p16 both negative or positive) • Heavy smoking history (>10 pack-years) • Negative HIV/HBV/HCV • Performance Status by Eastern Cooperative Oncology Group (ECOG)=0 or 1.
The main exclusion criteria were as follows: • Non-compensated liver cirrhosis (Child-Pugh class C) • >75 years • Non-cisplatin eligible.
A multicentre, phase 2, double-blind, randomised, placebo-controlled study was conducted to evaluate the safety and efficacy of oral Debio 1143 at 200 mg/day on Days 1-14 of 21-Day cycles combined with concomitant cisplatin-based chemoradiotherapy in patients with LA-SCCHN. Male and female patients were eligible if they were aged 18 to 75 years with histologically confirmed LA-SCCHN and fulfilled the following criteria: previously untreated, stage III, IVa or IVb (according to the American Joint Committee on Cancer 2010 staging system [AJCC TNM v7.0 2010]) of one or more of the following sites: oral cavity, oropharynx, hypopharynx and larynx and with T 2-4, N0-3, M0 measurable disease according to Response Evaluation Criteria in Solid Tumours (RECIST), version 1⋅1. Patients were to have a smoking history of more than 10 pack-years, and no medical history of hepatitis B or hepatitis C. For patients with oropharyngeal cancer, tumour HPV-status was determined by the presence of p16 using immunohistochemistry. Other inclusion criteria included: Eastern Cooperative Oncology Group (ECOG) performance status of 0 or 1, no clinically significant cardiac disease and no clinically significant hearing impairment that would have contraindicated the use of chemotherapy with HD-cisplatin.
Exclusion criteria included nasopharyngeal, paranasal sinuses, nasal cavity tumours or thyroid cancers, squamous cell cancer involving cervical neck nodes but from unknown primary site, unknown lymph node status, metastatic disease, any prior or current treatment for invasive head and neck cancer of any kind (including, but not limited to, prior tyrosine kinase inhibitors, prior neoadjuvant therapy, prior surgical resection, or use of any investigational agent), weight loss of >10% during the previous month, non-compensated liver cirrhosis, gastro-intestinal disorders that could affect drug absorption, concurrent treatment with any other systemic anticancer therapy or concomitant treatment with any drug on the prohibited medication list, history of uncontrolled or symptomatic angina, arrhythmias, or congestive heart failure, history of another malignancy within the last 5 years with the exception of completely resected basal or squamous cell skin cancer or successfully treated in-situ carcinoma, history of non-invasive lesion or in-situ carcinoma, including in the head and neck region that was successfully treated with surgery, peripheral neuropathy (grade 2 or above), clinical hearing loss, history of allergic reactions to appropriate antiemetics, human immunodeficiency virus infection. The protocol was approved by the institutional review boards or ethics committees of all participating centres. The study was carried out in accordance with the protocol, the principles expressed in the Declaration of Helsinki, and applicable regulatory requirements. All patients provided written informed consent in advance of study-specific procedures. […]

[2] = system: locally advanced squamous cell cancer of the head and neck (LA-SCCHN); test: Double-blind randomised placebo-controlled Phase II study of Debio 1143 + CRT: safety
Procedure: A double-blind randomized placebo-controlled Phase II study was conducted. […] All subjects received 100 mg/m^2 cisplatin on day 2 of each three-week cycle (up to three cycles) concomitantly with radiotherapy (RT). The subjects also received standard fractionation RT with 2 Gy/daily on five days/week for seven weeks up to 70 Gy delivered to the gross-tumor volume (GTV) and 50 Gy to eligible lymph nodes loco-regionally.
Conventional fractionated intensity modulated radiotherapy (IMRT) was delivered to the gross tumour volume (GTV, [primary tumour and involved nodes]), to a total dose of 70 Gy in 2 Gy daily fractions, for 5 days per week over 7 weeks. Primary and neck nodal areas with no tumour involvement (elective/prophylactic irradiation areas) received a total dose of 50 Gy. In accordance with the European Society of Medical Oncology guidelines, patients received prophylactic treatment with granisetron or palonosetron, dexamethasone and aprepitant, prior to and after cisplatin to prevent renal damage and emesis.
Medical history and demographics were collected at screening. Physical examination was conducted at screening, on day 1 of each cycle, at the end of study visit, at the safety follow-up visit and at each subsequent efficacy follow-up visit. Adverse events and co-medication were monitored throughout the study from signature of informed consent (28 days prior to the first dose) until 30 days after the last dose of study drug. Adverse events were graded according to Common Terminology Criteria for Adverse Events (NCI CTCAE) version 4⋅03. All information pertaining to unusual manifestations or adverse events was collected by the investigator at each visit. […] Late toxicities were defined in the protocol and monitored throughout the efficacy follow-up period until the end of study visit.

[3] = system: locally advanced squamous cell cancer of the head and neck (LA-SCCHN); test: Dose escalation of Debio 1143 with concurrent chemoradiotherapy (MTD determination); format: in vivo
Procedure: Additionally, for each Debio 1143 dose level (DL) and overall, according to variant 1 of this example: • (a) the safety profile of Debio 1143 in combination with concurrent CRT was assessed; • (b) the antitumour activity of the recommended dose (RD) of Debio 1143 in combination with concurrent CRT in the study population was evaluated. • In a variant 2 of this example, the following items (c) to (f) were explored in addition to items (a) and (b) of variant 1: • (c) the pharmacokinetics (PK) of Debio 1143 and cisplatin when administered in combination with radiation therapy, and explore the potential for drug-drug interactions of Debio 1143 in combination with cisplatin was explored; • (d) the pharmacodynamic (PDy) biomarkers of Debio 1143 activity in combination with concurrent CRT were explored; • (e) the PK/PDy, PK/efficacy, PK/safety, PDy/efficacy and PDy/safety relationships and pharmacogenetic (PGx) factors that may affect Debio 1143 PK were explored; and • (f) the pharmacogenomic and tumour PGx factors were explored.
During the screening phase, subjects were evaluated and staged using the American Joint Committee on Cancer (“AJCC”) […] staging system.
Escalating doses of Debio 1143 were added to CRT. […] The starting dose of Debio 1143 in this combination study was 100 mg/day over 14 days every 21 days. […]

[4] = as of 21 Jul. 2020, median follow-up 33 months
[5] = first tumour evaluation, approximately 11 weeks after chemoradiotherapy
[6] = six months post chemoradiotherapy
[7] = two-year follow-up, data cut off 15 Jul. 2019

CN[C@@H](C)C(=O)N[C@H]1CN(C(=O)CC(C)C)CC[C@H]2CC[C@@H](C(=O)NC(c3ccccc3)c3ccccc3)N2C1=O [Debio 1143, (5S,8S,10aR)—N-benzhydryl-5-[[(2S)-2-(methylamino)propanoyl]amino]-3-(3-methylbutanoyl)-6-oxo-1,2,4,5,8,9,10,10a-octahydropyrrolo[1,2-a][1,5]diazocine-8-carboxamide]
Locoregional control rate at 18 months after CRT [1]: 54% | Locoregional control rate at 18 months after CRT ([1]; listed as Debio 1143 + CRT): 54.2% | Odds Ratio for locoregional control at 18 months (Debio 1143 vs Placebo) ([1]; N = 48 per arm): 2.69 | 3 years OS rate ([1]; as of 21 Jul. 2020): 66% | Kaplan-Meier estimate of locoregional control at 36 months after the end of chemoradiotherapy ([1]; as of 21 Jul. 2020): 78% | hazard ratio, duration of locoregional control vs placebo ([1]; as of 21 Jul. 2020): 0.47 | median duration of locoregional control ([1]; as of 21 Jul. 2020): not reached | probability of PFS at 36 months ([1]; as of 21 Jul. 2020): 72% | reduction of the risk of disease progression or death vs placebo ([1]; as of 21 Jul. 2020): 66% | hazard ratio, PFS vs placebo ([1]; as of 21 Jul. 2020, 36 months of follow up): 0.34 | hazard ratio, overall survival vs placebo [1, 4]: 0.49 | median OS [1, 4]: not reached | reduction of the risk of mortality vs placebo [1, 4]: 51% | median overall survival ([1]; by 24 months): not yet reached | Kaplan-Meier estimate of locoregional control at 18 months after the end of chemoradiotherapy ([1]; data cut off 15 Jul. 2019): 78% | hazard ratio, duration of locoregional control vs placebo ([1]; data cut off 15 Jul. 2019): 0.53 | median duration of locoregional control ([1]; data cut off 15 Jul. 2019): not reached | median progression-free survival ([1]; data cut off 15 Jul. 2019): not reached | proportion of patients progression-free at 24 months ([1]; data cut off 15 Jul. 2019): 72% | complete response [1, 5]: 35% | partial response [1, 5]: 27% | complete response [1, 6]: 52% | partial response [1, 6]: 15% | hazard ratio, overall survival vs placebo [1, 7]: 0.65 | hazard ratio, progression-free survival vs placebo [1, 7]: 0.37 | patients who died ([2]; data cut off 15 Jul. 2019): 14 patients | grade 3 bilirubin increases ([2]; in vivo): no grade 3 bilirubin increases | grade 4 transaminase increases ([2]; in vivo): no grade 4 transaminase increases | patients with alanine aminotransferase increase leading to dose reduction ([2]; most common event leading to dose reduction): 10% | patients who discontinued Debio 1143 ([2]; of 48 patients): 15% | patients with adverse events of at least grade 3 ([2]; of 48 patients): 85% | patients with grade 1-2 tinnitus ([2]; of 48 patients): 31% | patients with grade 4 events ([2]; of 48 patients): 19% | patients with grade 5 events ([2]; of 48 patients): none | patients with serious treatment-emergent adverse events ([2]; of 48 patients): 63% | patients with treatment-emergent adverse events leading to dose reductions of Debio 1143 ([2]; of 48 patients): 19% | late toxicities ([2]; onset >60 days after CRT end, vs placebo): very similar and not increased; also recorded: late toxicity was balanced | frequency or severity of cisplatin-associated adverse events ([2]; renal insufficiency, febrile neutropenia, thrombocytopenia, peripheral sensory neuropathy, severe vomiting, exception grade 1-2 tinnitus): did not increase the frequency or severity | overall safety and tolerability of Debio 1143 added to chemoradiotherapy ([2]; vs placebo + CRT): well tolerated; also recorded: remained unchanged | grade 3 increases in aspartate aminotransferase and alanine aminotransferase ([2]; vs placebo group): higher | incidence of grade 3 anaemia ([2]; vs placebo group): higher incidence | incidence of grade 4 neutropenia ([2]; vs placebo group): higher incidence | efficacy versus CRT+placebo ([3]; high risk LA-SCCHN subjects): significantly improves efficacy | maximum tolerated dose (MTD) ([3]; oral daily for 14 days every three weeks, with cisplatin 100 mg/m^2 and RT 70 Gy): 200 mg
